Laboratory results published in patent publication US5223494A, “Orally administered porphyrins to control intestinal iron absorption” (The Rockefeller University, priority 1990, dated 1993).
Like-named read-outs stand apart in the source and are kept apart here.

Legend:
[1] = tested on: intestinal microsomal heme oxygenase; experiment: Competitive inhibition of intestinal microsomal heme oxygenase in vitro; type: biochemical, rat
Protocol: SnPP (o) was added to intestinal microsomes at concentrations of […]. The heme concentration was 50 uM. Heme oxygenase activity was determined as described below under Materials and Methods. Each point represents the mean of at least 3 individual experiments. Similar results obtain for other metalloporphyrins within the scope of the present invention.
(§1) Animals were sacrificed at the times indicated in the legend to the Table and in the above and following descriptions of the Figures, and then exhaustively perfused in situ with ice-cold 0.9% NaCl through the left ventricle. The small intestine was cut at the pyloric junction and the entire length of the intestine irrigated in situ with 30 ml of ice-cold 0.9% NaCl to remove intestinal contents. Beginning at 5 cm, a 20 cm segment of small intestine was excised and irrigated once more with 30 ml of saline. The mucosa was then gently scraped off with a stainless steel scalpel and placed in ice-cold potassium phosphate buffer (0.1M, pH 7.4), containing sucrose (0.25M), 20% glycerin (v/v), trypsin inhibitor (5 mg/ml), and heparin (3 U/ml), as described by Stohs et al, Arch. Biochem Biophys. 177: 105-116 (1976). Following sonication and homogenization, intestinal microsomes were then prepared by differential centrifugation as described in Rosenberg et al, Biochem. Pharmacol. 38: 1155-1161 (1988). The microsomal pellet was rinsed and resuspended in 1.5 ml of potassium phosphate buffer (0.1M, pH 7.4) to a protein concentration of approximately 5-10 mg/ml. Microsomes were freshly prepared on a daily basis for all subsequent assays. The activity of heme oxygenase was determined as described in Maines et al, J. Biol. Chem. 250: 4171-4178 (1975), using the 105,000xg supernatant fraction derived from normal rat liver as the source of biliverdin reductase, and a hemin concentration of 50 uM. Bilirubin formation was calculated using an absorption coefficient of 40 mm^1 cm^1 between 464 and 530 nm (See Maines et al, Proc. Natl. Acad. Sci. USA 71: 4293-4297 (1974)). Protein content was determined by method of Lowry et al, J. Biol. Chem. 193: 265-275 (1951) suing bovine serum albumin as a standard.
This is similar to the Km reported for heme in hepatic and splenic microsomes (See Kappas et al, J. Clin. Invest. 77: 335-339 (1986); Yoshinaga et al, J. Biol. Chem. 257: 7778-7785 (1982)).

[2] = tested on: intestinal microsomal heme oxygenase; experiment: Intestinal microsomal heme oxygenase activity after a single dose to rats; type: in vivo, rat; conditions: for Heme Oxygenase Activity in the Gut, Average: control 2.70 + 0.09
Protocol: (§2) Rats were maintained on Standard Purina Rodent Chow (St. Louis, Mo.), and were allowed to acclimatize to a light-cycled room (12 hr light/dark cycle) for at least one week prior to study. SnPP was dissolved in a small volume (0.2 ml/ml final volume) of 0.2N Na3 PO4 12H2 O, adjusted to pH 7.4 with 1M HCl and made up to a final volume with 0.9% NaCl under subdued light. SnPP was administered either subcutaneously or by gavage in a single dose of 25 umoles/kg body weight (4.0 ml/kg body weight). Control rats received an equivalent volume of diluent. All rats were allowed free access to food and water.
as §1
A single does of SnPP (25 umoles/kg b.w.) was administered either orally or parenterally to rats, and heme oxygenase levels were determined in the small intestinal epithelium at the times indicated in FIG. 1. This dose was selected to match that previously used by other investigators (See Hintz et al, Ped. Res. 23: 50-53 (1988)). Following oral treatment, heme oxygenase activity was rapidly (within 3 hours) inhibited (50% of controls), but the levels returned to normal within 16-24 hours after treatment.

[3] = rat, in vivo, po
Protocol: as §2
All tin analyses were performed on Zeeman/5000 atomic absorption spectrophotometer equipped with an HGA-500 graphite furnace Perkin-Elmer Corp., Norwalk, Conn.). The graphite furnace utilized the L'vov platform (See Slavin et al, At. Spectrosc. 2: 137-145 (1981)) with an appropriate wavelength (286.4 nm) and instrumental operating conditions as recommended by the manufacturer and optimized in our laboratory for tin measurement. All tin analyses included magnesium nitrate and ammonium phosphate in 20% nitric acid as a matrix modified.
For Table II: SnPP was adminsitered to rats in a single dose (25 umoles/kg body weight) either orally or subcutaneously. Tissue tin levels were determined 48 hours later by graphite furnace atomic absorption spectroscopy. […]

[4] = tested on: intestinal heme oxygenase; conditions: in vitro or in vivo after administration of SnPP; Hintz et al 1988; cited from earlier work
[5] = SnPP 25 umoles/kg single oral dose, rat

In the case of `C=CC1=C(C)c2cc3[n-]c(cc4[n-]c(cc5nc(cc1n2)C(C)=C5C=C)c(C)c4CCC(=O)O)c(CCC(=O)O)c3C.[Fe+2]` [heme, reference compound], the Km ([1]; intestinal microsomes, no inhibitor, linear regression, read-out: apparent Km for the substrate heme) is reported as 8.21 µM.
In the case of `C=Cc1c2[n-]c(c1C)/C=c1\[n-]/c(c(C)c1C=C)=C\c1[n-]c(c(CCC(=O)O)c1C)/C=c1\[n-]c(c(C)c1CCC(=O)O)=C2.[Sn+4]` [SnPP, tin protoporphyrin], the “heme oxygenase activity in small intestinal epithelium” value [2, 5] is reported as 50 % of controls, the “time for heme oxygenase levels to return to normal” value [2, 5] is reported as 16 to 24 h and the “time to inhibition of heme oxygenase activity” value [2, 5] is reported as ≤ 3 h. The “inhibition of heme oxygenase activity” value ([2]; SnPP 25 umoles/kg single parenteral (subcutaneous) dose, rat) was 65 % inhibition, the “persistence of decreased heme oxygenase activity” value ([2]; SnPP 25 umoles/kg single parenteral dose, rat) was “at least 48 hours” and the “absorption from the gastrointestinal tract” value [3] was “very low degree of absorption”. For the same compound, the Km ([1]; SnPP 0.05 uM, intestinal microsomes, read-out: Km for heme in presence of SnPP) was 23.9 µM, the Km ([1]; SnPP 0.1 uM, intestinal microsomes, read-out: Km for heme in presence of SnPP) was 56.2 µM and the “increase in the Km for heme” value ([1]; SnPP 0.05 and 0.1 uM) was 3- to 7 fold. The “type of inhibition of enzyme activity” value ([1]; SnPP 0.05 and 0.1 uM added to incubation mixtures) was “marked competitive inhibition”, the Ki ([1]; intestinal microsomes) was 17 nM and the “inhibition of intestinal heme oxygenase” value [4] was “no inhibition”.
With chromium mesoporphyrin [CrMP] the “Heme Oxygenase Activity in the Gut, Average” value ([2]; 3 hours after oral 25 umol/Kg CrMP) was 0.64 + 0.38, the “Heme Oxygenase Activity in the Gut, Average” value ([2]; 16 hours after oral 25 umol/Kg CrMP) was 1.04 + 0.02 and the “Heme Oxygenase Activity in the Gut, Average” value ([2]; 24 hours after oral 25 umol/Kg CrMP) was 1.85 + 0.07. For the same compound, the “Heme Oxygenase Activity in the Gut, Average” value ([2]; 48 hours after oral 25 umol/Kg CrMP) was 2.57 + 0.07.
